Experimental data reported in US20100196469A1, “Pharmaceutical Formulation containing an HMG-COA Reductase Inhibitor and method for the preparation thereof” (PHARMATHEN S.A., priority 2007, published 2010).
Structures can show the parent of a compound that is named as a salt.

Key:
Assay type in all cases: physicochemical
[1] = Compatibility test of Atorvastatin alone and Atorvastatin with Attapulgite at 40° C./75% RH (impurities)
[2] = Stability of unpacked tablets at 40° C.±2° C. and 75%±5% RH (impurities); settings: 40°/75 RH
Procedure: (§1) One of the main objects of the present invention was to prepare a product with acceptable stability. For this reason 3 batches of each composition were exposed to normal, intermediate and accelerated stability studies according to the current ICH guidelines.
The tablets of the above compositions were exposed at a temperature of 40° C.±2° C. and relative humidity of 75%±5% without being packed in any type of container or blister. The tablets were tested in predetermined time intervals. The results for each composition are described in the stability table (TABLE 1).

[3] = Stability after preparation and after 3 months in HDPE containers, normal and intermediate conditions (impurities); settings: for Atorvastatin Amide / Desfluoro: limit NMT 0.3%; for Atorvastatin Diepoxide: limit NMT 0.6%; for Diketo1,2-Diol + Diketoepoxide: limit NMT 1.20%; for Lactone: limit NMT 2%; for Total: total impurities; for Unknown: unknown impurity
Procedure: as §1
Subsequently, the tablets of compositions 2 were packed into white opaque, HDPE plastic […] C.±2° C. and relative humidity of 65%±5% for intermediate conditions. The results for composition 2 and of the active ingredient directly after preparation and after 3 months stability are described in the stability table below (TABLE 3).

Question: With `CC(C)c1c(C(=O)Nc2ccccc2)c(-c2ccccc2)c(-c2ccc(F)cc2)n1CC[C@@H](O)C[C@@H](O)CC(=O)O` (relative stereo) [Atorvastatin, [R—(R*,R*)]-2-(4-fluorophenyl)-b,d-dihydroxy-5-(1-methylethyl)-3-phenyl-4[(phenylamino)carbonyl]-1H -pyrrole-1-heptanoic acid, calcium salt (2:1) trihydrate] as the compound, how does the “Diketo1,2-Diol + Diketoepoxide” value ([1]; limit 1.20%) read?
Answer: 0.39%

Question: What about the “Atorvastatin Amide” value ([1]; limit NMT 0.3%) of the same compound?
Answer: 0.05%

Question: And the Desfluoro ([1]; limit NMT 0.3%)?
Answer: 0.07%

Question: What about the “Methyl Ester” value ([1]; limit NMT 0.3%) of the same compound?
Answer: 0.01%

Question: What about the “Atorvastatin Diepoxide” value ([1]; limit NMT 0.6%) of the same compound?
Answer: 0.20%

Question: And the Lactone ([1]; limit NMT 2%)?
Answer: 0.34%

Question: And the Total ([1]; total impurities)?
Answer: 1.29%

Question: And the Atorvastatin Amide [2]?
Answer: 0.07%

Question: And the Atorvastatin Diepoxide [2]?
Answer: 0.34%

Question: And the Desfluoro [2]?
Answer: 0.08%

Question: And the Diketo1,2-Diol + Diketoepoxide [2]?
Answer: 0.69%

Question: And the Lactone [2]?
Answer: 0.45%

Question: And the Total ([2]; total impurities)?
Answer: 1.87%

Question: What about the “Atorvastatin Amide” value ([3]; 0 months) of the same compound?
Answer: 0.06%

Question: What about the Desfluoro ([3]; 0 months) of the same compound?
Answer: 0.06%

Question: What about the “Atorvastatin Diepoxide” value ([3]; 0 months) of the same compound?
Answer: 0.25%

Question: And the “Diketo1,2-Diol + Diketoepoxide” value ([3]; 0 months)?
Answer: 0.84%

Question: What about the Lactone ([3]; 0 months) of the same compound?
Answer: 0.07%

Question: And the Total ([3]; 0 months)?
Answer: 1.69%

Question: What about the Unknown ([3]; 0 months) of the same compound?
Answer: 0.34%

Question: What about the “Atorvastatin Amide” value ([3]; 3 months 25° C./60% RH) of the same compound?
Answer: 0.06%

Question: And the Desfluoro ([3]; 3 months 25° C./60% RH)?
Answer: 0.03%

Question: What about the “Atorvastatin Diepoxide” value ([3]; 3 months 25° C./60% RH) of the same compound?
Answer: 0.30%

Question: And the “Diketo1,2-Diol + Diketoepoxide” value ([3]; 3 months 25° C./60% RH)?
Answer: 0.92%

Question: And the Lactone ([3]; 3 months 25° C./60% RH)?
Answer: 0.05%

Question: What about the Total ([3]; 3 months 25° C./60% RH) of the same compound?
Answer: 1.96%

Question: And the Unknown ([3]; 3 months 25° C./60% RH)?
Answer: 0.38%

Question: What about the “Atorvastatin Amide” value ([3]; 3 months 30° C./65% RH) of the same compound?
Answer: 0.06%

Question: What about the Desfluoro ([3]; 3 months 30° C./65% RH) of the same compound?
Answer: 0.03%

Question: What about the “Atorvastatin Diepoxide” value ([3]; 3 months 30° C./65% RH) of the same compound?
Answer: 0.38%

Question: What about the “Diketo1,2-Diol + Diketoepoxide” value ([3]; 3 months 30° C./65% RH) of the same compound?
Answer: 1.10%

Question: What about the Lactone ([3]; 3 months 30° C./65% RH) of the same compound?
Answer: 0.05%

Question: And the Total ([3]; 3 months 30° C./65% RH)?
Answer: 2.12%

Question: And the Unknown ([3]; 3 months 30° C./65% RH)?
Answer: 0.4%
